One block for each compound: values may come before it.
System: 349418-098-R-PDC complex spheroid viability
Experiment: Anticancer human tumor 349418-098-R-PDC patient-derived lung adenocarcinoma cell line growth inhibition [RAS]
Conditions: for IC50: curve of first compound; for viability, T/C: stronger effect = lower value
From the text: RAS pathway inhibitors in Combinations in Complex Spheroids
A high-throughput screen of multi-cell type tumor spheroids was designed to identify active combinations of RAS pathway inhibitors and targeted small molecules. Complex spheroids include a stromal component modeled by human endothelial cells (HUVEC) and fibroblasts modeled by human mesenchymal stem cells (MSCs). The concentration ranges selected for each drug and investigational agent were based upon clinically achievable concentrations if the clinical Cmax of the agent was known.
Compounds. The drugs and investigational agents: abemaciclib (NSC768073), cobimetinib (NSC768068), divarasib (GDC6063, NSC841802), docetaxel (NSC628503), GDC-1971 (RLY-1971, NSC841576), gemcitabine (NSC613327), inavolisib (NSC800729), ipatasertib (NSC767898), KB-0742 (NSC834161), MRTX-1133 (NSC836407), osimertinib (NSC779217), RMC-4630 (NSC839698), RMC-6236 (NSC851965), RMC-6291 (NSC852671), Ro-3306 (NSC812927), sapanisertib (NSC764658), SN-38 (NSC673596), staurosporine (NSC755774), SY5609 (NSC837396), and tovorafenib (DAY101, NSC766906), were obtained from the National Cancer Institute (NCI) Developmental Therapeutics Program Chemical Repository. The FDA-approved anticancer drug set is available from the NCI Developmental Therapeutics Program. […] The stock solutions were prepared in dimethyl sulfoxide (DMSO, Sigma-Aldrich, St. Louis, MO, cat. D2650) at 800-fold the tested concentration and stored at -70 degrees C prior to their use. All drugs and investigational agents were tested over a range starting from a high concentration at or near the clinical Cmax and decreasing in half-log increments. If the clinical Cmax for an agent had not been determined, the highest concentration tested was 10 microM.
Cell Culture. All cells were maintained in an incubator at 37 degrees C and 5% CO2 with 95% humidity. The PDC lines were cultured according to standard operating procedures established by the NCI PDMR. All PDCs were thawed and cultured in Matrigel-coated flasks prepared with a working solution of 1X Ham's F-12 nutrient mix, without supplementation (Invitrogen, Waltham, MA, cat. 11765054), 100 U/mL penicillin-streptomycin (Invitrogen, cat. 15140122), and 2.5% Matrigel (Corning Inc., Corning, NY, cat. 354248) for the first three passages. The 362531-283-R-J2-PDC and 782815-120-R-J1-PDC lines were cultured in 6C/Colon 1B media, which includes advanced DMEM/F-12 (Thermo Fisher Scientific, cat. 12634028), 10 mM HEPES (Thermo Fisher Scientific, cat. 15630080), 1X GlutaMAX supplement (Thermo Fisher Scientific, cat. 35050061), 0.1 mg/mL primocin (InvivoGen, San Diego, CA, cat. ant-pm-2), 10% defined fetal bovine serum, heat inactivated (HyClone Laboratories Inc., Logan, UT, cat. SH30070.03HI), 50% L-WRN conditioned media (ATCC, cat. CRL-3276), 1.25 mM N-Acetyl-L-cysteine (Sigma-Aldrich, cat. A9165), 10 mM nicotinamide (Sigma-Aldrich, cat. N0636), 1X B-27 supplement (Thermo Fisher Scientific, cat. 17504044), 1X N-2 supplement (Thermo Fisher Scientific, cat. 17502048), 50 ng/mL human EGF (Thermo Fisher Scientific, cat. PHG0311), and 10 microM Y-27632 dihydrochloride (Tocris Bioscience, cat. 1254). The K12877-001-R-J1-PDC line was cultured in 6I media, which includes all 6C/Colon 1B media plus 10 ng/mL human FGF-10 (PeproTech, cat. 100-26), 1 ng/mL human FGF-2 (PeproTech, cat. 100-18B), 1 µM prostaglandin E2 (Tocris Bioscience, cat. 2296), […] hydrocortisone (Sigma-Aldrich, cat. H4001), and […] bovine insulin (Sigma-Aldrich, cat. I6634). The K86415-001-R-J1-PDC line was cultured in 6D media, which includes all 6C/Colon 1B media components minus the L-WRN conditioned media. The 485176-168-R4-J1-PDC was cultured in PANC media, which includes all 6C/Colon 1B media plus 100 ng/mL human FGF-10 (PeproTech, cat. 100-26), 500 nM SB-431542 (Selleckchem, cat. S1067), and 10 nM gastrin (Tocris Bioscience, cat. 3006). […]

[1] = second compound 0.0316 µM, first compound 0.0316 µM
[2] = second compound 0.0316 µM, first compound 0.1 µM
[3] = second compound 0.0316 µM, first compound 0.316 µM
[4] = second compound 0.0316 µM, first compound 1 µM
[5] = second compound 0.0316 µM, first compound 3.16 µM
[6] = second compound 0.0316 µM, first compound 10 µM
[7] = second compound 0.1 µM, first compound 0.0316 µM
[8] = second compound 0.1 µM, first compound 0.1 µM
[9] = second compound 0.1 µM, first compound 0.316 µM
[10] = second compound 0.1 µM, first compound 1 µM
[11] = second compound 0.1 µM, first compound 3.16 µM
[12] = second compound 0.1 µM, first compound 10 µM
[13] = second compound 0.316 µM, first compound 0.0316 µM
[14] = second compound 0.316 µM, first compound 0.1 µM
[15] = second compound 0.316 µM, first compound 0.316 µM
[16] = second compound 0.316 µM, first compound 1 µM
[17] = second compound 0.316 µM, first compound 3.16 µM
[18] = second compound 0.316 µM, first compound 10 µM
[19] = second compound 1 µM, first compound 0.0316 µM
[20] = second compound 1 µM, first compound 0.1 µM
[21] = second compound 1 µM, first compound 0.316 µM
[22] = second compound 1 µM, first compound 1 µM
[23] = second compound 1 µM, first compound 3.16 µM
[24] = second compound 1 µM, first compound 10 µM
[25] = second compound 3.16 µM, first compound 0.0316 µM
[26] = second compound 3.16 µM, first compound 0.1 µM
[27] = second compound 3.16 µM, first compound 0.316 µM
[28] = second compound 3.16 µM, first compound 1 µM
[29] = second compound 3.16 µM, first compound 3.16 µM
[30] = second compound 3.16 µM, first compound 10 µM
[31] = second compound 10 µM, first compound 0.0316 µM
[32] = second compound 10 µM, first compound 0.1 µM
[33] = second compound 10 µM, first compound 0.316 µM
[34] = second compound 10 µM, first compound 1 µM
[35] = second compound 10 µM, first compound 3.16 µM
[36] = second compound 10 µM, first compound 10 µM
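Further: spheroids exposed to compound for seven days before viability readout.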

IC50 (second compound 0.0316 µM): 66 nM
IC50 (second compound 0.1 µM): 80.9 nM
IC50 (second compound 0.316 µM): 86.3 nM
IC50 (second compound 1 µM): 52.8 nM
IC50 (second compound 3.16 µM): 79.3 nM
IC50 (second compound 10 µM): < 31.6 nM
SMILES: CC1(O)CCCC1n1c(=O)c(C(F)F)cc2cnc(NC3CCN(S(C)(=O)=O)CC3)nc21 (stereo unspecified) + C#Cc1c(F)ccc2cc(O)cc(-c3ncc4c(N5CC6CCC(C5)N6)nc(OCC56CCCN5CC(F)C6)nc4c3F)c12
viability, T/C [1]: 62.5%
viability, T/C [2]: 43.8%
viability, T/C [3]: 23%
viability, T/C [4]: 27.6%
viability, T/C [5]: 23.2%
viability, T/C [6]: 3.27%
viability, T/C [7]: 83.5%
viability, T/C [8]: 41.3%
viability, T/C [9]: 23.1%
viability, T/C [10]: 16.2%
viability, T/C [11]: 18.7%
viability, T/C [12]: 3.67%
viability, T/C [13]: 84.5%
viability, T/C [14]: 41.7%
viability, T/C [15]: 25.2%
viability, T/C [16]: 25.8%
viability, T/C [17]: 20.1%
viability, T/C [18]: 3.12%
viability, T/C [19]: 60.5%
viability, T/C [20]: 35.9%
viability, T/C [21]: 28.9%
viability, T/C [22]: 26.5%
viability, T/C [23]: 19.9%
viability, T/C [24]: 4.34%
viability, T/C [25]: 67.6%
viability, T/C [26]: 41.9%
viability, T/C [27]: 29.9%
viability, T/C [28]: 25%
viability, T/C [29]: 25.5%
viability, T/C [30]: 4.16%
viability, T/C [31]: 49.8%
viability, T/C [32]: 12.9%
viability, T/C [33]: 16.3%
viability, T/C [34]: 14.4%
viability, T/C [35]: 9.5%
viability, T/C [36]: 1.44%

IC50 (second compound 0.0316 µM): 736 nM
IC50 (second compound 0.1 µM): 810 nM
IC50 (second compound 0.316 µM): 903 nM
IC50 (second compound 1 µM): 875 nM
IC50 (second compound 3.16 µM): 714 nM
IC50 (second compound 10 µM): < 31.6 nM
SMILES: CCC(CC)c1cc(NC2CCC(N)C2)n2nccc2n1 (stereo unspecified) + C#Cc1c(F)ccc2cc(O)cc(-c3ncc4c(N5CC6CCC(C5)N6)nc(OCC56CCCN5CC(F)C6)nc4c3F)c12
viability, T/C [1]: 91.3%
viability, T/C [2]: 106%
viability, T/C [3]: 76.1%
viability, T/C [4]: 41.9%
viability, T/C [5]: 3.06%
viability, T/C [6]: 2.85%
viability, T/C [7]: 84.2%
viability, T/C [8]: 107%
viability, T/C [9]: 84.5%
viability, T/C [10]: 42.6%
viability, T/C [11]: 2.89%
viability, T/C [12]: 2.86%
viability, T/C [13]: 91.3%
viability, T/C [14]: 112%
viability, T/C [15]: 106%
viability, T/C [16]: 44.8%
viability, T/C [17]: 4.03%
viability, T/C [18]: 2.72%
viability, T/C [19]: 75.8%
viability, T/C [20]: 85.6%
viability, T/C [21]: 67.2%
viability, T/C [22]: 48.9%
viability, T/C [23]: 3.08%
viability, T/C [24]: 3.26%
viability, T/C [25]: 75%
viability, T/C [26]: 97.5%
viability, T/C [27]: 83.2%
viability, T/C [28]: 36.1%
viability, T/C [29]: 3.69%
viability, T/C [30]: 3.11%
viability, T/C [31]: 52.5%
viability, T/C [32]: 44.7%
viability, T/C [33]: 42.7%
viability, T/C [34]: 20.4%
viability, T/C [35]: 1.26%
viability, T/C [36]: 0.7%

IC50 (second compound 0.0316 µM): 7.9 nM
IC50 (second compound 0.1 µM): 30.5 nM
IC50 (second compound 0.316 µM): 18.2 nM
IC50 (second compound 1 µM): 12.3 nM
IC50 (second compound 3.16 µM): 10.3 nM
IC50 (second compound 10 µM): < 3.16 nM
SMILES: CCN1CCN(Cc2ccc(Nc3ncc(F)c(-c4cc(F)c5nc(C)n(C(C)C)c5c4)n3)nc2)CC1 + C#Cc1c(F)ccc2cc(O)cc(-c3ncc4c(N5CC6CCC(C5)N6)nc(OCC56CCCN5CC(F)C6)nc4c3F)c12
viability, T/C (second compound 0.0316 µM, first compound 0.00316 µM): 66.8%
viability, T/C (second compound 0.0316 µM, first compound 0.01 µM): 38.2%
viability, T/C [1]: 41.9%
viability, T/C [2]: 25.9%
viability, T/C [3]: 18%
viability, T/C [4]: 16.3%
viability, T/C (second compound 0.1 µM, first compound 0.00316 µM): 76.2%
viability, T/C (second compound 0.1 µM, first compound 0.01 µM): 77.7%
viability, T/C [7]: 47.6%
viability, T/C [8]: 25.7%
viability, T/C [9]: 22%
viability, T/C [10]: 14.4%
viability, T/C (second compound 0.316 µM, first compound 0.00316 µM): 78.2%
viability, T/C (second compound 0.316 µM, first compound 0.01 µM): 59.9%
viability, T/C [13]: 40.8%
viability, T/C [14]: 28.9%
viability, T/C [15]: 24.4%
viability, T/C [16]: 16.2%
viability, T/C (second compound 1 µM, first compound 0.00316 µM): 79.4%
viability, T/C (second compound 1 µM, first compound 0.01 µM): 49.6%
viability, T/C [19]: 37.8%
viability, T/C [20]: 33.5%
viability, T/C [21]: 20.5%
viability, T/C [22]: 19.9%
viability, T/C (second compound 3.16 µM, first compound 0.00316 µM): 74.1%
viability, T/C (second compound 3.16 µM, first compound 0.01 µM): 51.3%
viability, T/C [25]: 32.8%
viability, T/C [26]: 29.1%
viability, T/C [27]: 30.4%
viability, T/C [28]: 16.6%
viability, T/C (second compound 10 µM, first compound 0.00316 µM): 26.7%
viability, T/C (second compound 10 µM, first compound 0.01 µM): 37.7%
viability, T/C [31]: 14.3%
viability, T/C [32]: 12.5%
viability, T/C [33]: 5.58%
viability, T/C [34]: 2.78%
